From patent US20250154109A1, “SODIUM CHANNEL BLOCKING COMPOUNDS, DERIVATIVES THEREOF, AND METHODS OF THEIR USE” (LATIGO BIOTHERAPEUTICS, INC, priority 2022, published 2025)
Like-named read-outs stand apart in the source and are kept apart here.

Molecular target: human Nav1.8 (Homo sapiens, UniProt Q9Y5Y9)
Assay: SyncroPatch384PE assay (automated patch clamp)
Type: cell-based
Details: human Nav1.8/b3 CHO cells
[1] = inactivated state block (P2 measurement), read-out: P2 IC50
[2] = resting state block (P1 measurement), read-out: P1 IC50

Chain of human Nav1.8 (Q9Y5Y9 whole entry): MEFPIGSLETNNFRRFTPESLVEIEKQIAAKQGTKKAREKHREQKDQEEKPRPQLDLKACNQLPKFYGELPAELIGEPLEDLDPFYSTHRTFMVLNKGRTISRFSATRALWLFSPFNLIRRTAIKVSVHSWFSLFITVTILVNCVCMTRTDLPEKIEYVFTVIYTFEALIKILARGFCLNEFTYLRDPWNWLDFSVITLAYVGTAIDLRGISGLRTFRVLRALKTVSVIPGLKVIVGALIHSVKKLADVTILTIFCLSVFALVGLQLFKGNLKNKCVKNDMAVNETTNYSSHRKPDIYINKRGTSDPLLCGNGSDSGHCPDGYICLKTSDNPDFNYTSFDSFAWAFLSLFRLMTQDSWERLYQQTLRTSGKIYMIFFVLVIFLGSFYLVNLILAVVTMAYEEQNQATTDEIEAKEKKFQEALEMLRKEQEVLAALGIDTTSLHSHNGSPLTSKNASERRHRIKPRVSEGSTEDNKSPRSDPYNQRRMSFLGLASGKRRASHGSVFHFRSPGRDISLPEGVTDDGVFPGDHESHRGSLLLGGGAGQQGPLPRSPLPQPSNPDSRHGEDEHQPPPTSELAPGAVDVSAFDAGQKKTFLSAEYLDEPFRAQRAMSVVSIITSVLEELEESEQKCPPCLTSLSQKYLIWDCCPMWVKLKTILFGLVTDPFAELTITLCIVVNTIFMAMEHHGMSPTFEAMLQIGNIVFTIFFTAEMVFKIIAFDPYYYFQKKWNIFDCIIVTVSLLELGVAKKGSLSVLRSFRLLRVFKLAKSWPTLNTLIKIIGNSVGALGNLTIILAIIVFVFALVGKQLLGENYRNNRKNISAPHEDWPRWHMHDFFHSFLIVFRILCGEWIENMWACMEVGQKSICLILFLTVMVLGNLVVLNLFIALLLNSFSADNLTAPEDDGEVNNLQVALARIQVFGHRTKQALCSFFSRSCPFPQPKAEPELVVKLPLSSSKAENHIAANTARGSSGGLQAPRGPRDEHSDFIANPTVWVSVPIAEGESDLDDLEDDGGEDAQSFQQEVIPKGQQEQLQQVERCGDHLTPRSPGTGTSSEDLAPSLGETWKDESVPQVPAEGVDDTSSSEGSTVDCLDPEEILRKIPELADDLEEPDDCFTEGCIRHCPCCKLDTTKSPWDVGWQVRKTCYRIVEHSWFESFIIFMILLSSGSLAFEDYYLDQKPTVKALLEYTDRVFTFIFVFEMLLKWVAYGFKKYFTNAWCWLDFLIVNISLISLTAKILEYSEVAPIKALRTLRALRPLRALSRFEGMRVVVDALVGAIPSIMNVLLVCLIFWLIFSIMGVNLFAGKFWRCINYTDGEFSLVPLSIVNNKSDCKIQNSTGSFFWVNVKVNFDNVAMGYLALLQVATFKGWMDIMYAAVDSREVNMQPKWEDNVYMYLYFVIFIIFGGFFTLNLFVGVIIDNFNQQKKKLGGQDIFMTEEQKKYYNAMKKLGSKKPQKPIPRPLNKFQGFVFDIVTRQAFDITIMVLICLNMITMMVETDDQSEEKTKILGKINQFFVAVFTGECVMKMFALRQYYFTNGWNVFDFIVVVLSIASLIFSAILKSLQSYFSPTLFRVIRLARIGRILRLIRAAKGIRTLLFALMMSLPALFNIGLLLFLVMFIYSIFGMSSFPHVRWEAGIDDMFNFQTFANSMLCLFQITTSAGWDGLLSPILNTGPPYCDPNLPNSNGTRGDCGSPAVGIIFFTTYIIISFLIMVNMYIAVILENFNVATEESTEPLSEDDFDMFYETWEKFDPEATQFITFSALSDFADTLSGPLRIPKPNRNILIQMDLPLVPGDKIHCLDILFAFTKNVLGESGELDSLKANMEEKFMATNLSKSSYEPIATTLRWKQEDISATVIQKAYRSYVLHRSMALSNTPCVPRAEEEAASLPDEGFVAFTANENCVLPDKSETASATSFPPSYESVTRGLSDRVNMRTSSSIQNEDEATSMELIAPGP

Compound | IC50 [1] [nM] | IC50 [2] [nM]
Cc1ncc(-c2cnc(N3CCCC(F)(F)CC3)c(C(=O)Nc3cccc([S@](C)(=N)=O)c3)c2C)o1 [Example 178, (R)-2-(4,4-difluoroazepan-1-yl)-4-methyl-5-(2-methyloxazol-5-yl)-N-(3-(S-methylsulfonimidoyl)phenyl)nicotinamide] | 5 to 50 | 5 to 50
Cc1c(C(F)(F)F)nnc(N2CCCC(F)(F)CC2)c1C(=O)Nc1cccc([S@@](C)(=O)=NC(=O)[C@@H](C)O)c1 [Example 179, 3-(4,4-difluoroazepan-1-yl)-N-(3-((R)-N-((R)-2-hydroxypropanoyl)-S-methylsulfonimidoyl)phenyl)-5-methyl-6-(trifluoromethyl)pyridazine-4-carboxamide] | ≤ 5 | ≤ 5
Cc1c(C(F)(F)F)cnc(N2CCCC(F)(F)CC2)c1C(=O)Nc1cccc([S@@](C)(=O)=NC(=O)C2(N)CCC2)c1 [Example 180, (R)-N-(3-(N-(1-aminocyclobutane-1-carbonyl)-S-methylsulfonimidoyl)phenyl)-2-(4,4-difluoroazepan-1-yl)-4-methyl-5-(trifluoromethyl)nicotinamide] | ≤ 5 | ≤ 5
Cc1c(C(F)(F)F)cnc(N2CCCC(F)(F)CC2)c1C(=O)Nc1cccc([S@@](C)(=O)=NC(=O)CN)c1 [Example 181, (R)-2-(4,4-difluoroazepan-1-yl)-N-(3-(N-glycyl-S-methylsulfonimidoyl)phenyl)-4-methyl-5-(trifluoromethyl)nicotinamide] | ≤ 5 | ≤ 5
Cc1c(C(F)(F)F)nnc(N2CCCC(F)(F)CC2)c1C(=O)Nc1cccc([S@@](C)(=O)=NC(=O)[C@@H](C)N)c1 [Example 183, N-(3-((R)-N-(D-alanyl)-S-methylsulfonimidoyl)phenyl)-3-(4,4-difluoroazepan-1-yl)-5-methyl-6-(trifluoromethyl)pyridazine-4-carboxamide] | ≤ 5 | ≤ 5
Cc1c(C(=O)Nc2cccc([S@@](C)(=O)=NC(=O)CN)c2)c(N2CCCC(F)(F)CC2)nc(C(F)(F)F)c1-c1cnn(C)c1 [Example 184, (R)-2-(4,4-difluoroazepan-1-yl)-N-(3-(N-glycyl-S-methylsulfonimidoyl)phenyl)-4-methyl-5-(1-methyl-1H-pyrazol-4-yl)-6-(trifluoromethyl)nicotinamide] | ≤ 5 | ≤ 5
Cc1c(C(F)(F)F)cnc(N2CCCC(F)(F)CC2)c1C(=O)Nc1cccc([S@@](C)(=O)=NC(=O)C(C)(C)N)c1 [Example 187, (R)-N-(3-(N-(2-amino-2-methylpropanoyl)-S-methylsulfonimidoyl)phenyl)-2-(4,4-difluoroazepan-1-yl)-4-methyl-5-(trifluoromethyl)nicotinamide] | ≤ 5 | ≤ 5
Cc1c(C(=O)Nc2cccc([S@@](C)(=O)=NC(=O)[C@@H]3CCCN3)c2)c(N2CCCC(F)(F)CC2)nc(C(F)(F)F)c1-c1cnn(C)c1 [Example 190, N-(3-((R)-N-(L-prolyl)-S-methylsulfonimidoyl)phenyl)-2-(4,4-difluoroazepan-1-yl)-4-methyl-5-(1-methyl-1H-pyrazol-4-yl)-6-(trifluoromethyl)nicotinamide] | ≤ 5 | ≤ 5
Cc1c(C(=O)Nc2cccc([S@@](C)(=O)=NC(=O)CO)c2)c(N2CCCC(F)(F)CC2)nc(C(F)(F)F)c1-c1cnn(C)c1 [Example 191, (R)-2-(4,4-difluoroazepan-1-yl)-N-(3-(N-(2-hydroxyacetyl)-S-methylsulfonimidoyl)phenyl)-4-methyl-5-(1-methyl-1H-pyrazol-4-yl)-6-(trifluoromethyl)nicotinamide] | ≤ 5 | ≤ 5
Cc1c(C(F)(F)F)cnc(N2CCCC(F)(F)CC2)c1C(=O)Nc1cccc([S@@](C)(=O)=NC(=O)[C@H](C)O)c1 [Example 192, 2-(4,4-difluoroazepan-1-yl)-N-(3-((R)-N-((S)-2-hydroxypropanoyl)-S-methylsulfonimidoyl)phenyl)-4-methyl-5-(trifluoromethyl)nicotinamide] | ≤ 5 | ≤ 5
Cc1c(C(F)(F)F)cnc(N2CCCC(F)(F)CC2)c1C(=O)Nc1cccc([S@@](C)(=O)=NC(=O)[C@@H](C)O)c1 [Example 193, 2-(4,4-difluoroazepan-1-yl)-N-(3-((R)-N-((R)-2-hydroxypropanoyl)-S-methylsulfonimidoyl)phenyl)-4-methyl-5-(trifluoromethyl)nicotinamide] | ≤ 5 | ≤ 5
CNCC(=O)N=[S@](C)(=O)c1cccc(NC(=O)c2c(N3CCCC(F)(F)CC3)ncc(C(F)(F)F)c2C)c1 [Example 194, (R)-2-(4,4-difluoroazepan-1-yl)-4-methyl-N-(3-(S-methyl-N-(methylglycyl)sulfonimidoyl)phenyl)-5-(trifluoromethyl)nicotinamide] | ≤ 5 | ≤ 5
Cc1c(C(F)(F)F)cnc(N2CCCC(F)(F)CC2)c1C(=O)Nc1cccc([S@@](C)(=O)=NC(=O)CO)c1 [Example 195, (R)-2-(4,4-difluoroazepan-1-yl)-N-(3-(N-(2-hydroxyacetyl)-S-methylsulfonimidoyl)phenyl)-4-methyl-5-(trifluoromethyl)nicotinamide] | ≤ 5 | ≤ 5
Cc1c(C#N)c(C(F)(F)F)nc(N2CCCC(F)(F)CC2)c1C(=O)Nc1cccc([S@@](C)(=O)=NCCN)c1 [Example 196, (R)-N-(3-(N-(2-aminoethyl)-S-methylsulfonimidoyl)phenyl)-5-cyano-2-(4,4-difluoroazepan-1-yl)-4-methyl-6-(trifluoromethyl)nicotinamide] | ≤ 5 | ≤ 5
Cc1c(C(F)(F)F)ncc(N2CCCC(F)(F)CC2)c1C(=O)Nc1cccc([S@](C)(=N)=O)c1 [Example 197, (R)-5-(4,4-difluoroazepan-1-yl)-3-methyl-N-(3-(S-methylsulfonimidoyl)phenyl)-2-(trifluoromethyl)isonicotinamide] | 50 to 100 | 50 to 100
Cc1c(C(F)(F)F)nnc(N2CCCC(F)(F)CC2)c1C(=O)Nc1cccc([S@@](C)(=O)=NC(=O)CN2CC(F)(F)C2)c1 [Example 198, (R)-3-(4,4-difluoroazepan-1-yl)-N-(3-(N-(2-(3,3-difluoroazetidin-1-yl)acetyl)-S-methylsulfonimidoyl)phenyl)-5-methyl-6-(trifluoromethyl)pyridazine-4-carboxamide] | ≤ 5 | ≤ 5

More lines, now with the values ahead:

IC50 [1] [nM] | IC50 [2] [nM] | Compound
≤ 5 | ≤ 5 | C[S@@](=N)(=O)c1cc(NC(=O)c2cc(Cl)c(C(F)(F)F)cc2N2CCCC(F)(F)CC2)ccn1 [Example 199, (R)-5-chloro-2-(4,4-difluoroazepan-1-yl)-N-(2-(S-methylsulfonimidoyl)pyridin-4-yl)-4-(trifluoromethyl)benzamide]
100 to 200 | 100 to 200 | Cc1c(-c2cnn(C)c2)cnc(N2CCCC(F)(F)CC2)c1C(=O)Nc1ccnc([S@](C)(=N)=O)c1 [Example 200, (R)-2-(4,4-difluoroazepan-1-yl)-4-methyl-5-(1-methyl-1H-pyrazol-4-yl)-N-(2-(S-methylsulfonimidoyl)pyridin-4-yl)nicotinamide]
5 to 50 | 5 to 50 | Cc1c(C#N)cnc(N2CCCC(F)(F)CC2)c1C(=O)Nc1ccnc([S@](C)(=N)=O)c1 [Example 201, (R)-5-cyano-2-(4,4-difluoroazepan-1-yl)-4-methyl-N-(2-(S-methylsulfonimidoyl)pyridin-4-yl)nicotinamide]
≤ 5 | ≤ 5 | Cc1c(C(F)(F)F)cnc(N2CCCC(F)(F)CC2)c1C(=O)Nc1cccc([S@@](C)(=O)=NC(=O)CN2CC(F)(F)C2)c1 [Example 202, (R)-2-(4,4-difluoroazepan-1-yl)-N-(3-(N-(2-(3,3-difluoroazetidin-1-yl)acetyl)-S-methylsulfonimidoyl)phenyl)-4-methyl-5-(trifluoromethyl)nicotinamide]
5 to 50 | 5 to 50 | CNCCN=[S@](C)(=O)c1cccc(NC(=O)c2c(N3CCCC(F)(F)CC3)ncc(-c3cnn(C)c3)c2C)c1 [Example 203, (R)-2-(4,4-difluoroazepan-1-yl)-4-methyl-5-(1-methyl-1H-pyrazol-4-yl)-N-(3-(S-methyl-N-(2-(methylamino)ethyl)sulfonimidoyl)phenyl)nicotinamide]
5 to 50 | 5 to 50 | Cc1cc(C#N)nc(N2CCCC(F)(F)CC2)c1C(=O)Nc1ccnc([S@](C)(=N)=O)c1 [Example 204, (R)-6-cyano-2-(4,4-difluoroazepan-1-yl)-4-methyl-N-(2-(S-methylsulfonimidoyl)pyridin-4-yl)nicotinamide]
≤ 5 | ≤ 5 | C[S@+]([O-])c1cc(NC(=O)c2cc(Cl)c(C(F)(F)F)cc2N2CCCC(F)(F)CC2)ccc1F [Example 205, (S)-5-chloro-2-(4,4-difluoroazepan-1-yl)-N-(4-fluoro-3-(methylsulfinyl)phenyl)-4-(trifluoromethyl)benzamide]
≤ 5 | ≤ 5 | C[S@@+]([O-])c1cc(NC(=O)c2cc(Cl)c(C(F)(F)F)cc2N2CCCC(F)(F)CC2)ccc1F [Example 206, (R)-5-chloro-2-(4,4-difluoroazepan-1-yl)-N-(4-fluoro-3-(methylsulfinyl)phenyl)-4-(trifluoromethyl)benzamide]
5 to 50 | 5 to 50 | C[S@](=N)(=O)c1cccc(NC(=O)c2c(N3CCCC(F)(F)CC3)cnc(C(F)(F)F)c2Cl)c1 [Example 207, (S)-3-chloro-5-(4,4-difluoroazepan-1-yl)-N-(3-(S-methylsulfonimidoyl)phenyl)-2-(trifluoromethyl)isonicotinamide]
5 to 50 | 5 to 50 | C[S@@](=N)(=O)c1cccc(NC(=O)c2c(N3CCCC(F)(F)CC3)cnc(C(F)(F)F)c2Cl)c1 [Example 208, (R)-3-chloro-5-(4,4-difluoroazepan-1-yl)-N-(3-(S-methylsulfonimidoyl)phenyl)-2-(trifluoromethyl)isonicotinamide]
